Measured values taken from patent publication US9511073B2, “Aromatic amides and uses thereof” (TAXIS Pharmaceuticals, Inc., priority 2011, dated 2016).
Values after ≈ are worked out from the molar mass of the structure shown.

These compounds were tested on Staphylococcus aureus (Isolate ID ATCC 29213) (assay: Bacterial assay: MIC by broth microdilution or agar dilution (CLSI), S. aureus ATCC 29213). Conditions: Staphylococcus aureus, ATCC29213, read-out: S. aureus MIC (μg/mL) Activity Range, S. aureus (ATCC29213).
Type: cell-based
Method in brief: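 Activity is binned (A ≤0.25 μg/mL; B >0.25–1.0; C >1.0–16; D >16 μg/mL) from MICs determined per CLSI by broth microdilution or agar dilution, on S. aureus ATCC 29213 plus an FtsZ-G196A mutant strain.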
In the case of `COc1ncccc1CNC(=O)OCC(Oc1ccc(F)c(C(N)=O)c1F)c1nc(-c2ccc(C(F)(F)F)cc2)c(Br)o1` (centres unmarked) [Compound 196, 2-(5-bromo-4-(4-(trifluoromethyl)phenyl)oxazol-2-yl)-2-(3-carbamoyl-2,4-difluorophenoxy)ethyl ((2-methoxypyridin-3-yl)methyl)carbamate], the MIC is reported as < 0.25 µg/mL.
With `CN(Cc1ccncn1)C(=O)OCC(Oc1ccc(F)c(C(N)=O)c1F)c1nc(-c2ccc(C(F)(F)F)cc2)c(Br)o1` (centres unmarked) [Compound 197, 2-(5-bromo-4-(4-(trifluoromethyl)phenyl)oxazol-2-yl)-2-(3-carbamoyl-2,4-difluorophenoxy)ethyl methyl(pyrimidin-4-ylmethyl)carbamate] the MIC was 0.25 to 1 µg/mL (≈ 0.381 to 1.52 µM).
`Cn1cc(CNC(=O)OCC(Oc2ccc(F)c(C(N)=O)c2F)c2nc(-c3ccc(C(F)(F)F)cc3)c(Br)o2)cn1` (centres unmarked) [Compound 198, 2-(5-bromo-4-(4-(trifluoromethyl)phenyl)oxazol-2-yl)-2-(3-carbamoyl-2,4-difluorophenoxy)ethyl ((1-methyl-1H-pyrazol-4-yl)methyl)carbamate] gave an MIC of 0.25 to 1 µg/mL (≈ 0.388 to 1.55 µM).
Work on `Cc1cccc(CNC(=O)OCC(Oc2ccc(F)c(C(N)=O)c2F)c2nc(-c3ccc(C(F)(F)F)cc3)c(Br)o2)n1` (centres unmarked) [Compound 199, 2-(5-bromo-4-(4-(trifluoromethyl)phenyl)oxazol-2-yl)-2-(3-carbamoyl-2,4-difluorophenoxy)ethyl ((6-methylpyridin-2-yl)methyl)carbamate] yielded an MIC of 0.25 to 1 µg/mL (≈ 0.381 to 1.53 µM).
`Cc1cc(CNC(=O)OCC(Oc2ccc(F)c(C(N)=O)c2F)c2nc(-c3ccc(C(F)(F)F)cc3)c(Br)o2)ccn1` (centres unmarked) [Compound 200, 2-(5-bromo-4-(4-(trifluoromethyl)phenyl)oxazol-2-yl)-2-(3-carbamoyl-2,4-difluorophenoxy)ethyl ((2-methylpyridin-4-yl)methyl)carbamate] was tested, and the MIC was 0.25 to 1 µg/mL (≈ 0.381 to 1.53 µM).
In the case of `Cn1ccnc1CNC(=O)OCC(Oc1ccc(F)c(C(N)=O)c1F)c1nc(-c2ccc(C(F)(F)F)cc2)c(Br)o1` (centres unmarked) [Compound 201, 2-(5-bromo-4-(4-(trifluoromethyl)phenyl)oxazol-2-yl)-2-(3-carbamoyl-2,4-difluorophenoxy)ethyl ((1-methyl-1H-imidazol-2-yl)methyl)carbamate], the MIC is reported as 0.25 to 1 µg/mL (≈ 0.388 to 1.55 µM).
Work on `Cn1cccc1CNC(=O)OCC(Oc1ccc(F)c(C(N)=O)c1F)c1nc(-c2ccc(C(F)(F)F)cc2)c(Br)o1` (centres unmarked) [Compound 202, 2-(5-bromo-4-(4-(trifluoromethyl)phenyl)oxazol-2-yl)-2-(3-carbamoyl-2,4-difluorophenoxy)ethyl ((1-methyl-1H-pyrrol-2-yl)methyl)carbamate] yielded an MIC of 0.25 to 1 µg/mL (≈ 0.389 to 1.55 µM).
For `Cn1cnc(CNC(=O)OCC(Oc2ccc(F)c(C(N)=O)c2F)c2nc(-c3ccc(C(F)(F)F)cc3)c(Br)o2)c1` (centres unmarked) [Compound 203, 2-(5-bromo-4-(4-(trifluoromethyl)phenyl)oxazol-2-yl)-2-(3-carbamoyl-2,4-difluorophenoxy)ethyl ((1-methyl-1H-imidazol-4-yl)methyl)carbamate], the MIC was 0.25 to 1 µg/mL (≈ 0.388 to 1.55 µM).
In the case of `Cc1nn(C)cc1CNC(=O)OCC(Oc1ccc(F)c(C(N)=O)c1F)c1nc(-c2ccc(C(F)(F)F)cc2)c(Br)o1` (centres unmarked) [Compound 204, 2-(5-bromo-4-(4-(trifluoromethyl)phenyl)oxazol-2-yl)-2-(3-carbamoyl-2,4-difluorophenoxy)ethyl ((1,3-dimethyl-1H-pyrazol-4-yl)methyl)carbamate], the MIC is reported as 0.25 to 1 µg/mL (≈ 0.38 to 1.52 µM).
`Cc1c(CNC(=O)OCC(Oc2ccc(F)c(C(N)=O)c2F)c2nc(-c3ccc(C(F)(F)F)cc3)c(Br)o2)cnn1C` (centres unmarked) [Compound 205, 2-(5-bromo-4-(4-(trifluoromethyl)phenyl)oxazol-2-yl)-2-(3-carbamoyl-2,4-difluorophenoxy)ethyl ((1,5-dimethyl-1H-pyrazol-4-yl)methyl)carbamate] was tested, and the MIC was 0.25 to 1 µg/mL (≈ 0.38 to 1.52 µM).
With `COCCn1cnnc1CNC(=O)OCC(Oc1ccc(F)c(C(N)=O)c1F)c1nc(-c2ccc(C(F)(F)F)cc2)c(Br)o1` (centres unmarked) [Compound 206, 2-(5-bromo-4-(4-(trifluoromethyl)phenyl)oxazol-2-yl)-2-(3-carbamoyl-2,4-difluorophenoxy)ethyl ((4-(2-methoxyethyl)-4H-1,2,4-triazol-3-yl)methyl)carbamate] the MIC was 1 to 16 µg/mL (≈ 1.45 to 23.2 µM).
Compound `COCCn1cncc1CNC(=O)OCC(Oc1ccc(F)c(C(N)=O)c1F)c1nc(-c2ccc(C(F)(F)F)cc2)c(Br)o1` (centres unmarked) [Compound 207, 2-(5-bromo-4-(4-(trifluoromethyl)phenyl)oxazol-2-yl)-2-(3-carbamoyl-2,4-difluorophenoxy)ethyl ((1-(2-methoxyethyl)-1H-imidazol-5-yl)methyl)carbamate] has an MIC of 1 to 16 µg/mL (≈ 1.45 to 23.2 µM).
`COc1ccc(CNC(=O)OCC(Oc2ccc(F)c(C(N)=O)c2F)c2nc(-c3ccc(C(F)(F)F)cc3)c(Br)o2)cn1` (centres unmarked) [Compound 208, 2-(5-bromo-4-(4-(trifluoromethyl)phenyl)oxazol-2-yl)-2-(3-carbamoyl-2,4-difluorophenoxy)ethyl ((6-methoxypyridin-3-yl)methyl)carbamate] showed an MIC of 0.25 to 1 µg/mL (≈ 0.372 to 1.49 µM).
For `COc1cc(CNC(=O)OCC(Oc2ccc(F)c(C(N)=O)c2F)c2nc(-c3ccc(C(F)(F)F)cc3)c(Br)o2)ccn1` (centres unmarked) [Compound 209, 2-(5-bromo-4-(4-(trifluoromethyl)phenyl)oxazol-2-yl)-2-(3-carbamoyl-2,4-difluorophenoxy)ethyl ((2-methoxypyridin-4-yl)methyl)carbamate], the MIC was 0.25 to 1 µg/mL (≈ 0.372 to 1.49 µM).
`Cn1c(CNC(=O)OCC(Oc2ccc(F)c(C(N)=O)c2F)c2nc(-c3ccc(C(F)(F)F)cc3)c(Br)o2)nc2ccccc21` (centres unmarked) [Compound 210, 2-(5-bromo-4-(4-(trifluoromethyl)phenyl)oxazol-2-yl)-2-(3-carbamoyl-2,4-difluorophenoxy)ethyl ((1-methyl-1H-benzo[d]imidazol-2-yl)methyl)carbamate] showed an MIC of 0.25 to 1 µg/mL (≈ 0.36 to 1.44 µM).
`Cc1ccc(CNC(=O)OCC(Oc2ccc(F)c(C(N)=O)c2F)c2nc(-c3ccc(C(F)(F)F)cc3)c(Br)o2)n1C` (centres unmarked) [Compound 211, 2-(5-bromo-4-(4-(trifluoromethyl)phenyl)oxazol-2-yl)-2-(3-carbamoyl-2,4-difluorophenoxy)ethyl ((1,5-dimethyl-1H-pyrrol-2-yl)methyl)carbamate] was tested, and the MIC was 0.25 to 1 µg/mL (≈ 0.38 to 1.52 µM).
`Cc1cc(CNC(=O)OCC(Oc2ccc(F)c(C(N)=O)c2F)c2nc(-c3ccc(C(F)(F)F)cc3)c(Br)o2)n(C)n1` (centres unmarked) [Compound 212, 2-(5-bromo-4-(4-(trifluoromethyl)phenyl)oxazol-2-yl)-2-(3-carbamoyl-2,4-difluorophenoxy)ethyl ((1,3-dimethyl-1H-pyrazol-5-yl)methyl)carbamate] showed an MIC of 0.25 to 1 µg/mL (≈ 0.38 to 1.52 µM).
Compound `Cc1cc(CNC(=O)OCC(Oc2ccc(F)c(C(N)=O)c2F)c2nc(-c3ccc(C(F)(F)F)cc3)c(Br)o2)nn1C` (centres unmarked) [Compound 213, 2-(5-bromo-4-(4-(trifluoromethyl)phenyl)oxazol-2-yl)-2-(3-carbamoyl-2,4-difluorophenoxy)ethyl ((1,5-dimethyl-1H-pyrazol-3-yl)methyl)carbamate] has an MIC of 0.25 to 1 µg/mL (≈ 0.38 to 1.52 µM).
With `Cc1ccc(CNC(=O)OCC(Oc2ccc(F)c(C(N)=O)c2F)c2nc(-c3ccc(C(F)(F)F)cc3)c(Br)o2)cn1` (centres unmarked) [Compound 214, 2-(5-bromo-4-(4-(trifluoromethyl)phenyl)oxazol-2-yl)-2-(3-carbamoyl-2,4-difluorophenoxy)ethyl ((6-methylpyridin-3-yl)methyl)carbamate] the MIC was 0.25 to 1 µg/mL (≈ 0.381 to 1.53 µM).
`Cc1ncccc1CNC(=O)OCC(Oc1ccc(F)c(C(N)=O)c1F)c1nc(-c2ccc(C(F)(F)F)cc2)c(Br)o1` (centres unmarked) [Compound 215, 2-(5-bromo-4-(4-(trifluoromethyl)phenyl)oxazol-2-yl)-2-(3-carbamoyl-2,4-difluorophenoxy)ethyl ((2-methylpyridin-3-yl)methyl)carbamate] showed an MIC of 0.25 to 1 µg/mL (≈ 0.381 to 1.53 µM).
`Cc1cnccc1CNC(=O)OCC(Oc1ccc(F)c(C(N)=O)c1F)c1nc(-c2ccc(C(F)(F)F)cc2)c(Br)o1` (centres unmarked) [Compound 216, 2-(5-bromo-4-(4-(trifluoromethyl)phenyl)oxazol-2-yl)-2-(3-carbamoyl-2,4-difluorophenoxy)ethyl ((3-methylpyridin-4-yl)methyl)carbamate] showed an MIC of 0.25 to 1 µg/mL (≈ 0.381 to 1.53 µM).
Compound `NC(=O)c1c(F)ccc(OC(COC(=O)NCCn2ccccc2=O)c2nc(-c3ccc(C(F)(F)F)cc3)c(Br)o2)c1F` (centres unmarked) [Compound 217, 2-(5-bromo-4-(4-(trifluoromethyl)phenyl)oxazol-2-yl)-2-(3-carbamoyl-2,4-difluorophenoxy)ethyl (2-(2-oxopyridin-1(2H)-yl)ethyl)carbamate] has an MIC of 0.25 to 1 µg/mL (≈ 0.372 to 1.49 µM).
In the case of `Cc1nnc(C(Oc2ccc(F)c(C(N)=O)c2F)c2nc(-c3ccc(C(F)(F)F)cc3)co2)o1` (centres unmarked) [Compound 218, 2,6-difluoro-3-((5-methyl-1,3,4-oxadiazol-2-yl)(4-(4-(trifluoromethyl)phenyl)oxazol-2-yl)methoxy)benzamide], the MIC is reported as > 16 µg/mL.
`CC(=O)OCC(OC(C)=O)C(Oc1ccc(F)c(C(N)=O)c1F)c1nc(-c2ccc(C(F)(F)F)cc2)c(Br)o1` (centres unmarked) [Compound 219, 3-(5-bromo-4-(4-(trifluoromethyl)phenyl)oxazol-2-yl)-3-(3-carbamoyl-2,4-difluorophenoxy)propane-1,2-diyl diacetate] was tested, and the MIC was > 16 µg/mL.
`CNc1ccc(-c2coc(C(CO)Oc3ccc(F)c(C(N)=O)c3F)n2)cn1` (centres unmarked) [Compound 220, 2,6-difluoro-3-(2-hydroxy-1-(4-(6-(methylamino)pyridin-3-yl)oxazol-2-yl)ethoxy)benzamide] was tested, and the MIC was > 16 µg/mL.
`CCCc1nc(C(CO)Oc2ccc(F)c(C(N)=O)c2F)oc1Br` (centres unmarked) [Compound 221, 3-(1-(5-bromo-4-propyloxazol-2-yl)-2-hydroxyethoxy)-2,6-difluorobenzamide] was tested, and the MIC was 1 to 16 µg/mL (≈ 2.47 to 39.5 µM).
`NC(=O)c1c(F)ccc(OC(CO)c2nc(-c3ccc(Cl)c(F)c3)co2)c1F` (centres unmarked) [Compound 222, 3-(1-(4-(4-chloro-3-fluorophenyl)oxazol-2-yl)-2-hydroxyethoxy)-2,6-difluorobenzamide] was tested, and the MIC was > 16 µg/mL.
For `NC(=O)c1c(F)ccc(OC(CO)c2nc(-c3ccccc3F)co2)c1F` (centres unmarked) [Compound 223, 2,6-difluoro-3-(1-(4-(2-fluorophenyl)oxazol-2-yl)-2-hydroxyethoxy)benzamide], the MIC was > 16 µg/mL.
With `CNc1ccc(-c2nc(C(CO)Oc3ccc(F)c(C(N)=O)c3F)oc2Br)cn1` (centres unmarked) [Compound 224, 3-(1-(5-bromo-4-(6-(methylamino)pyridin-3-yl)oxazol-2-yl)-2-hydroxyethoxy)-2,6-difluorobenzamide] the MIC was > 16 µg/mL.
